Format in all cases: cell-based
The test system of assay [1] is Trypanosoma cruzi strain Tulahuen C2C4 (intracellular amastigotes in L6 cells). In words: in vitro growth inhibition of T. cruzi. The settings on record: for SI TC: ratio of cytotoxic (L6) over antiparasitic IC50.
Assay [2] relates to L6 rat skeletal myoblasts. The assay can be described thus: cytotoxicity against mammalian cells. Conditions: read-out: IC50 L6.
Assay [3] has as its system Leishmania donovani strain MHOM/ET/67/L82 (axenic amastigotes). In words: in vitro growth inhibition of L. donovani. The settings on record: for IC50: read-out: IC50 LD.
Assay [4] has as its system Trypanosoma brucei rhodesiense strain STIB 900 (bloodstream trypomastigotes). In words: microbe, parasite or virus in culture. Conditions: for IC50: read-out: IC50 TB.
[5] abbreviates: Trypanosoma cruzi, TULAHUEN, L6, pure compound, read-out: IC50 TC.
Setting [6] is: ratio of cytotoxic (L6) over antiparasitic IC50.
Setting [7] is: pure compound, read-out: IC50 TC.
[8] abbreviates: Rattus norvegicus, Myoblast, cytotoxicity, pure compound.
The mark [9] stands for this setting: Leishmania donovani, pure compound.
Setting [10] is: Trypanosoma brucei, pure compound.

Where two headings read alike, the source gives them in different places.

In the case of `O=C(Cn1ccnc1[N+](=O)[O-])NCc1ccccc1` [Benznidazole], the IC50 (in general, the point on the concentration scale where inhibition reaches its midpoint) in assay [1] (setting [5]) stood at 2.33 µM.

For `O=C1C=C(O)C(=O)c2ccccc21` [Lawson], the IC50 came to 20.6 µM in assay [2] (cytotoxicity, pure compound); 1.99 µM in assay [3] (pure compound); 37.4 µM in assay [1] (setting [7]); 101 µM in assay [4] (pure compound). In assay [3] (setting [6]), the “SI LD” value was 10.3. Moreover, the “SI TC” value in assay [1] came to 0.6. For the same molecule, in assay [4] (setting [6]), the “SI TB” value is 0.2.

In the case of `CC(C)=CCC1=C(O)C(=O)c2ccccc2C1=O` [Lapachol], the IC50 stood at 26.6 µM in assay [2] (setting [8]), 3.33 µM in assay [3] (setting [9]), 17.6 µM in assay [1] (setting [5]) and 16.4 µM in assay [4] (setting [10]). Besides, the “SI LD” value in assay [3] (setting [6]) is reported as 8.0. Moreover, in assay [1], the “SI TC” value was 1.5. In addition, the “SI TB” value in assay [4] (setting [6]) is on record as 1.6.

For `O=C1C=CC(=O)c2ccccc21` [1,4-Naphthoquinone], the IC50 stood at 6.39 µM in assay [2] (setting [8]), 2.38 µM in assay [3] (setting [9]), 9.24 µM in assay [1] (setting [5]) and 0.58 µM in assay [4] (setting [10]). The “SI LD” value in assay [3] (setting [6]) is recorded as 2.7. Moreover, in assay [1], the “SI TC” value was 0.7. Moreover, the “SI TB” value in assay [4] (setting [6]) worked out at 11.1.

In the case of `OC[C@H]1O[C@@H](Oc2ccc(O)cc2)[C@H](O)[C@@H](O)[C@@H]1O` [Arbutin (1,4-benzoquinone glucoside), Arbutin], the 50% inhibitory concentration (IC50) in assay [2] (setting [8]) is greater than 367 µM; in assay [3] (setting [9]), greater than 367 µM; in assay [1] (setting [5]) it was 244 µM; in assay [4] (setting [10]), 236 µM. In assay [1], the “SI TC” value is listed as greater than 1.5. Besides, the “SI TB” value in assay [4] (setting [6]) was greater than 1.5.

For `CC1=CC(=O)c2c(O)cccc2C1=O` [Plumbagin], the IC50 in assay [2] (setting [8]) came to 2.87 µM; in assay [3] (setting [9]) it was 0.88 µM; in assay [1] (setting [5]), 3.59 µM; in assay [4] (setting [10]), 0.49 µM. For the same molecule, the “SI LD” value in assay [3] (setting [6]) was 3.3. Also, in assay [1], the “SI TC” value amounted to 0.8. Further, the “SI TB” value in assay [4] (setting [6]) came to 5.9.

Regarding `CC(C)=CC[C@@H](O)C1=CC(=O)c2c(O)ccc(O)c2C1=O` [Shikonin], the IC50 in assay [2] (Rattus norvegicus, Myoblast) worked out at 0.06 µM; in assay [3] (Leishmania donovani) it was 0.12 µM; in assay [1] (Trypanosoma cruzi, TULAHUEN, L6, read-out: IC50 TC), 0.27 µM; in assay [4] (setting [10]), 0.03 µM. In addition, in assay [3] (setting [6]), the “SI LD” value turned out to be 0.5. For the same molecule, the “SI TC” value in assay [1] is recorded as 0.2. Besides, the “SI TB” value in assay [4] (setting [6]) is 2.1.

Consider `O=C1C=CC(=O)c2c(O)cccc21` [Juglone], for which the IC50 is 21 µM in assay [2] (setting [8]), 2.02 µM in assay [3] (Leishmania donovani), greater than 100 µM in assay [1] (setting [5]) and 1.62 µM in assay [4] (Trypanosoma brucei). The “SI LD” value in assay [3] was determined as 10.4. Besides, in assay [4], the “SI TB” value was 13.0.

Regarding `O=C1C(O)=C(C2=C(O)C(=O)c3ccccc3C2=O)C(=O)c2ccccc21` [2,2′-bis-(3-Hydroxy-1,4-naphthoquinone)], the IC50 in assay [2] (cytotoxicity, pure compound) turned out to be 61.6 µM; in assay [3] (pure compound) it was 7.34 µM; in assay [1] (setting [7]), 237 µM; in assay [4] (pure compound), 68.8 µM. Further, in assay [3] (setting [6]), the “SI LD” value was 8.4. Further, in assay [1], the “SI TC” value came to 0.3. The “SI TB” value in assay [4] (setting [6]) is recorded as 0.9.

For the molecule `COc1cc([C@@H]2c3cc4c(cc3[C@H](O)[C@H]3COC(=O)[C@H]23)OCO4)cc(OC)c1OC` [Podophyllotoxin], in assay [2] (setting [8]), the IC50 was 0.014 µM.

Turning to `CCCCCCCCCCCCCCCCOP(=O)([O-])OCC[N+](C)(C)C` [Miltefosine], in assay [3] (setting [9]), the IC50 worked out at 0.18 µM.

In the case of `Nc1nc(N)nc(Nc2ccc([As]3SCC(CO)S3)cc2)n1` (stereo not drawn) [Melarsoprol], the half-inhibitory concentration (IC50) in assay [4] (setting [10]) was found to be 0.005 µM.

As to `OC[C@H]1O[C@@H](Oc2ccc(O)c3cccc(O)c23)[C@H](O)[C@@H](O)[C@@H]1O` [Compound 1, 4-O-β-D-Glucopyranosyl-1,4,5-trihydroxynaphthalene], the IC50 in assay [2] (setting [8]) was 122 µM; in assay [2] (cytotoxicity, pure compound, listed as Hydrojuglone glucoside (1)), 122 µM; in assay [3] (setting [9]), 16.7 µM; in assay [3] (pure compound, listed as Hydrojuglone glucoside (1)), 16.6 µM; in assay [1] (setting [5]) it was 169 µM; in assay [4] (setting [10]), 6.1 µM. Further, in assay [4] (Trypanosoma brucei), the IC50 turned out to be 6.12 µM. Also, the “SI LD” value in assay [3] (setting [6]) was 7.3; in assay [3] (ratio of cytotoxic (L6) over antiparasitic IC50, listed as Hydrojuglone glucoside (1)), 7.4. In addition, in assay [1], the “SI TC” value is reported as 0.7. Besides, the “SI TB” value in assay [4] stood at 20.0.
